In patent publication US10369146B2, “Phenyl linked quinolinyl modulators of RORγt” (Janssen Pharmaceutica NV, priority 2013, dated 2019):
Structures can show the parent of a compound that is named as a salt.

Tests used:
human RORγt LBD = target: T1, human RORγt LBD (Homo sapiens, UniProt P51449); assay: RORγt reporter assay (GAL4-RORγt LBD luciferase, HEK293T cells); assay type: cell-based; conditions: for IC50 / RORγt reporter Assay, % inhibition @ 6 μM: HEK293T cells; for IC50: 24 hours compound treatment, firefly/renilla luciferase ratio; for inhibition at 6 µM: HEK-293T, read-out: RORγt reporter Assay, % inhibition @ 6 μM, 6 μM compound, HEK293T cells; for RORγt reporter Assay, % inhibition @ 6 μM: 6 μM compound
T1 construct: expressed in transfected cells; host or cells: HEK293T
T1 sequence (P51449 258-518): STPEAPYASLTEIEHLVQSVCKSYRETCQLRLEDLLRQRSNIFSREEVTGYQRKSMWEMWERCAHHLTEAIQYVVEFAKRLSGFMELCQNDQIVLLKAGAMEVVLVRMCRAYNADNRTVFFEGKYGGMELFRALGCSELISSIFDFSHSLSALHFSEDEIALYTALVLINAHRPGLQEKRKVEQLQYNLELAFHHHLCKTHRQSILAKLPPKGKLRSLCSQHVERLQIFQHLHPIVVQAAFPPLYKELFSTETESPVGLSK
From the text: A reporter assay was used to test functional activity of RORγt modulatory compounds on transcriptional activation driven by the RORγt LBD. Cells used in the assay were co-transfected with two constructs. The first construct, pBIND-RORγt LBD, contained the wild type human RORγt LBD fused to the DNA binding domain of the GAL4 protein. The second construct, pGL4.31 (Promega Cat no. C935A), contained multiple GAL4 responsive DNA elements upstream of firefly luciferase. […] The mutant construct was called pBIND-RORγt-AF2.
The pBIND vector contains the GAL4 DNA Binding Domain (GAL4 DBD) and the renilla luciferase gene under control of the SV40 promoter. Renilla luciferase expression serves as a control for transfection efficiency and cell viability.
The reporter assay was performed by transiently transfecting HEK293T cells with 5 μg of pBIND-RORγt LBD or pBIND-RORγt LBD-AF2 and 5 μg pGL4.31 (Promega Cat no. C935A) using Fugene 6 (Invitrogen Cat no. E2691) at a 1:6 ratio of DNA:Fugene 6 in a T-75 flask in which cells were at least 80% confluent. Twenty four hours after bulk transfection, cells were plated into 96-well plates at 50,000 cells/well in phenol-red free DMEM containing 5% Lipid Reduced FCS and Pen/Strep. Six hours after plating, cells were treated with compounds for 24 hours. Media was removed and cells were lysed with 50 μL 1×Glo Lysis Buffer (Promega). Dual Glo Luciferase Reagent (50 μL/well) was then added and firefly luciferase luminescence was read on an Envision after a ten minute incubation. Finally, Stop and Glo reagent (50 IAL/well) was added and renilla luciferase luminescence was read on an Envision instrument after a ten minute incubation. To calculate the effect of compounds on RORγt activity, the ratio of firefly to renilla luciferase was determined and plotted against compound concentration. Agonist compounds increase RORγt-driven luciferase expression, and antagonist or inverse agonist compounds decrease luciferase expression.

[1] = system: IL-17 production by CD4 T cells; assay: Human Th17 assay (IL-17 production by CD4 T cells under Th17 differentiation); assay type: cell-based; conditions: 3 days, IL-17 in supernatant
Description: The human Th17 assay tests the effect of RORγt modulatory compounds on IL-17 production by CD4 T cells under conditions which favor Th17 differentiation. Total CD4^+ T cells were isolated from the peripheral blood mononuclear cells (PBMC) of healthy donors using a CD4^+ T cell isolation kit II, following the manufacturer's instructions (Miltenyi Biotec). […] 50 μL of compound at titrated concentrations in DMSO were added into each well at final DMSO concentration at 0.2%. Cells were incubated for 1 hour, then 50 μL of Th17 cell differentiation medium was added to each well. The final concentrations of antibodies and cytokines (R&D Systems) in differentiation medium were: 3×10^6/mL anti-CD3/CD28 beads (prepared using human T cell activation/expansion kit, Miltenyi Biotec), 10 μg/mL anti-IL4, 10 μg/mL anti-IFNγ, 10 ng/mL IL1β, 10 ng/mL IL23, 50 ng/mL IL6, 3 ng/mL TGFβ and 20 U/mL IL2. Cells were cultured at 37° C. and 5% CO2 for 3 days. Supernatants were collected and the accumulated IL-17 in culture was measured by using MULTI-SPOT® Cytokine Plate following manufacture's instruction (Meso Scale Discovery). The plate was read using Sector Imager 6000, and IL-17 concentration was extrapolated from the standard curve. The IC50s were determined by GraphPad.

[2] = target: T2, human RORγt ligand binding domain (RORγt LBD) (Homo sapiens, UniProt P51449); assay: RORγt ThermoFluor® assay (thermal shift binding); conditions: RORγt LBD, 1,8-ANS dye, pH 7.0; Kd estimated from thermal shift
T2 construct: His-tag (N); TurboTEV protease cleavage site (ENLYFQG) (N); made in house; host or cells: E. coli (pHIS1, modified pET vector)
T2 sequence (P51449 with tags, fused parts or gaps): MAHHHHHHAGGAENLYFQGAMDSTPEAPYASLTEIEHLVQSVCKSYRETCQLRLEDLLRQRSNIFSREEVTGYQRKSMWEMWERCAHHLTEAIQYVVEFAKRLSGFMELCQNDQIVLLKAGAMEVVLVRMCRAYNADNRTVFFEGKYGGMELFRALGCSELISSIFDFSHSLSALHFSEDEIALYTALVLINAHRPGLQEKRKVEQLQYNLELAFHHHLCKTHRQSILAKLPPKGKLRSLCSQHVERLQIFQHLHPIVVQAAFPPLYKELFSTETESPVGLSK
Description: This approach is applicable to a wide variety of systems, and rigorous in theoretical interpretation through quantitation of equilibrium binding constants (KD).
The shift in the melting point described as a ΔTm is proportional to the concentration and affinity of the ligand.
Protein and compound solutions are dispensed into black 384-well polypropylene PCR microplates (Abgene) and overlayed with silicone oil (1 μL, Fluka, type DC 200) to prevent evaporation.
Bar-coded assay plates are robotically loaded onto a thermostatically controlled PCR-type thermal block and then heated at a typical ramp-rate of 1° C./min for all experiments. Fluorescence was measured by continuous illumination with UV light (Hamamatsu LC6) supplied via fiber optic and filtered through a band-pass filter (380-400 nm; >6 OD cutoff). Fluorescence emission of the entire 384-well plate was detected by measuring light intensity using a CCD camera (Sensys, Roper Scientific) filtered to detect 500±25 nm, resulting in simultaneous and independent readings of all 384 wells. Images were collected at each temperature, and the sum of the pixel intensity in a given area of the assay plate was recorded versus temperature. Reference wells contained RORγt without compounds, and the assay conditions were as follows: • 0.065 mg/mL RORγt • 60 μM 1,8-ANS • 100 mM Hepes, pH 7.0 • 10 mM NaCl • 2.5 mM GSH • 0.002% Tween-20
Project compounds were arranged in a pre-dosed mother plate (Greiner Bio-one) wherein compounds are serially diluted in 100% DMSO by 1:2 from a high concentration of 10 mM over 12 columns within a series (column 12 is a reference well containing DMSO, no compound). The compounds were robotically dispensed directly into assay plates (1×=46 nL) using a Hummingbird capillary liquid handling instrument (Digilab). Following compound dispense, protein and dye in buffer was added to achieve the final assay volume of 3 μL, followed by 1 μL of silicone oil.

Structure (SMILES) | IC50 (human RORγt LBD) [nM] | Kd [2] [nM] | RORγt reporter Assay, % inhibition @ 6 μM (human RORγt LBD) [%] | further results
COc1nc2ccc(C(O)(c3cncn3C)C3CCN(C(C)=O)CC3)cc2c(C#N)c1-c1cccc(C(F)(F)F)c1 (single isomer, unassigned) [Example 2c, 6-((1-Acetylpiperidin-4-yl)(hydroxy)(1-methyl-1H-imidazol-5-yl)methyl)-2-methoxy-3-(3-(trifluoromethyl)phenyl)quinoline-4-carbonitrile] | 170 |  |  | 
Cc1cc(C(O)(c2ccc(C(F)(F)F)nc2)c2cncn2C)cc2c(C#N)c(-c3ccccc3)c(C#N)nc12 (single isomer, unassigned) [Example 25c, 6-(Hydroxy(1-methyl-1H-imidazol-5-yl)(6-(trifluoromethyl)pyridin-3-yl)methyl)-8-methyl-3-phenylquinoline-2,4-dicarbonitrile] |  |  |  | IC50 ([1]; Homo sapiens, CD4+ T, 72 h): 160 nM
CC(=O)N1CCC(C(O)(c2cccnc2)c2ccc3nc(C(F)(F)F)c(-c4ccccc4)c(C#N)c3c2)CC1 (single isomer, unassigned) [Example 30a, 6-((1-Acetylpiperidin-4-yl)(hydroxy)(pyridin-3-yl)methyl)-3-phenyl-2-(trifluoromethyl)quinoline-4-carbonitrile.TFA] | 110 | 23 |  | inhibition at 6 µM (human RORγt LBD): 91%
CC(=O)N1CCC(C(O)(c2cccnc2)c2ccc3nc(C(F)(F)F)c(-c4ccccc4)c(C#N)c3c2)CC1 (single isomer, unassigned) [Example 30b, 6-((1-Acetylpiperidin-4-yl)(hydroxy)(pyridin-3-yl)methyl)-3-phenyl-2-(trifluoromethyl)quinoline-4-carbonitrile] | 49 | 300 | 95 | IC50 [1]: 57 nM
CC(=O)N1CCC(C(O)(c2cccnc2)c2ccc3nc(C(F)(F)F)c(-c4ccccc4)c(C#N)c3c2)CC1 (single isomer, unassigned) [Example 30c, 6-((1-Acetylpiperidin-4-yl)(hydroxy)(pyridin-3-yl)methyl)-3-phenyl-2-(trifluoromethyl)quinoline-4-carbonitrile] | 140 | 9 | 93 | IC50 [1]: 2200 nM
COc1c(-c2ccccc2)c(Cl)nc2ccc(C(O)(c3cnnn3C)c3cnc(C)n3C)cc12 (single isomer, unassigned) [Example 40b, (2-Chloro-4-methoxy-3-phenylquinolin-6-yl)(1,2-dimethyl-1H-imidazol-5-yl)(1-methyl-1H-1,2,3-triazol-5-yl)methanol] | 680 | 150 |  | 
COc1c(-c2ccccc2)c(Cl)nc2ccc(C(O)(c3cnnn3C)c3cnc(C)n3C)cc12 (single isomer, unassigned) [Example 40c, (2-Chloro-4-methoxy-3-phenylquinolin-6-yl)(1,2-dimethyl-1H-imidazol-5-yl)(1-methyl-1H-1,2,3-triazol-5-yl)methanol] | 190 | 120 |  | 
Cn1cncc1C(O)(c1ccc(Cl)cc1)c1ccc2nc(Cl)c(-c3ccccc3)c(Cl)c2c1 (stereo not shown) [Example 65, (4-Chlorophenyl)(2,4-dichloro-3-phenylquinolin-6-yl)(1-methyl-M-imidazol-5-yl)methanol] |  |  |  | IC50 ([1]; 72 h): 1800 nM
Cc1nc(C)c(C(O)(c2ccc3nc(Cl)c(-c4ccccc4)c(Cl)c3c2)c2cncn2C)s1 (stereo not shown) [Example 68, (2,4-Dichloro-3-phenylquinolin-6-yl)(2,4-dimethylthiazol-5-yl)(1-methyl-1H-imidazol-5-yl)methanol] |  |  |  | IC50 ([1]; 72 h): 20 nM

Second part, led by results:

IC50 (human RORγt LBD) [nM] | Kd [2] [nM] | RORγt reporter Assay, % inhibition @ 6 μM (human RORγt LBD) [%] | Structure (SMILES) | further results
150 |  |  | Cn1cncc1C(O)(c1ccc(Cl)cc1)c1ccc2nc(C(F)(F)F)c(-c3ccccc3)c(C#N)c2c1 (single isomer, unassigned) [Example 31a, 6-((4-Chlorophenyl)(hydroxy)(1-methyl-1H-imidazol-5-yl)methyl)-3-phenyl-2-(trifluoromethyl)quinoline-4-carbonitrile.TFA] | inhibition at 6 µM (human RORγt LBD): 102%
42 | 5 | 103 | Cn1cncc1C(O)(c1ccc(Cl)cc1)c1ccc2nc(C(F)(F)F)c(-c3ccccc3)c(C#N)c2c1 (single isomer, unassigned) [Example 31b, 6-((4-Chlorophenyl)(hydroxy)(1-methyl-1H-imidazol-5-yl)methyl)-3-phenyl-2-(trifluoromethyl)quinoline-4-carbonitrile] | IC50 ([1]; Homo sapiens, CD4+ T, 72 h): 20 nM
1600 | 3300 | 85 | Cn1cncc1C(O)(c1ccc(Cl)cc1)c1ccc2nc(C(F)(F)F)c(-c3ccccc3)c(C#N)c2c1 (single isomer, unassigned) [Example 31c, 6-((4-Chlorophenyl)(hydroxy)(1-methyl-1H-imidazol-5-yl)methyl)-3-phenyl-2-(trifluoromethyl)quinoline-4-carbonitrile] | 
